# Assay results as given in patent US5316775A, “Method of treating hepatitis B infection” (Kremers-Urban Company, priority 1993, dated 1994).
# “And” between values parts separate entries of the source, which are not always exact repeats. Equal values may be shown once. Read-outs that look alike come from different tables or passages of the source.
# Key:
# Assay type in all cases: cell-based
# HBV = test: antihepatitis viral activity: HBV virion DNA and intracellular HBV DNA in cultured cells (blot hybridization)
# Procedure: Details of the assay methodology can be found in: Korba and Milman, Antiviral Res., 15:217 (1991) and Korba and Gerin, Antiviral Res. (1992) (in press). The antiviral evaluations were performed on two separate passages of cells. All wells, in all plates, were seeded at the same density and at the same time. Due to the inherent variations in the levels of both intracellular and extracellular HBV DNA, only depressions greater than 3.5-fold (for HBV virion DNA) or 3.0-fold (for HBV DNA replication intermediates) from the average levels for these HBV DNA forms in untreated cells are generally considered to be statistically significant [P<0.05]. The levels of integrated HBV DNA in each cellular DNA preparation (which remain constant on a per cell basis in these experiments) were used to calculate the levels of intracellular HBV DNA forms, thereby eliminating technical variations inherent in the blot hybridization assays.
# Typical values for extracellular HBV virion DNA in untreated cells range from 50 to 100 pg/ml culture medium (average of approximately 76 pg/ml). Intracellular HBV DNA replication intermediates in untreated cells range from 50 to 100 pg/μg cell DNA) (average approximately 74 pg/μg cell DNA). In general, depressions in the levels of intracellular HBV DNA due to treatment with antiviral compounds are less pronounced, and occur more slowly, than depressions in the levels of HBV virion DNA).
# In the following data table, data is shown concerning analysis of intracellular HBV DNA at 24 hours following the 9th day of treatment. DNA in each cell DNA preparation were used to calculate the levels of episomal 3.2 Kb HBV genomes (MONO.) and HBV DNA replication intermediates (RI). A "zero" indicates an undetectable level of HBV DNA, sensitivity cutoff was 0.1 pg/ml.
# [1] = toxicity analysis: uptake of neutral red dye; conditions: triplicate cultures, ± standard deviation, read-out: Neutral Red Dye Uptake at Indicated Drug Concentration
# Procedure: (§1) Toxicity analyses were performed in order to assess whether any observed antiviral effects are due to a general effect on cell viability. The method used was uptake of neutral red dye, a standard and widely used assay for cell viability in a variety of virus-host systems, including HSV and HIV.
# (§2) Toxicity results were performed in 96-well flat bottomed tissue cultures plates. Cells for the toxicity analyses were cultured and treated with test compounds with the same schedule as used for the antiviral evaluations. Each compound was tested at four concentrations, each in triplicate cultures. Uptake of neutral red dye was used to determine the relative level of toxicity. The absorbance of internalized dye at […] (A510) was used for the quantitative analysis. Values are presented as a percentage of the average A510 values (±standard deviations) in nine separate cultures of untreated cells maintained on the same 96-well plate as the test compounds.
# cell viability = test: toxicity analysis: uptake of neutral red dye; conditions: triplicate cultures, ± standard deviation
# Procedure: as §1, §2
structure (smiles),measurement,setting,value
"Nc1ccn([C@H]2CC[C@@H](CO)O2)c(=O)n1 [2',3'-ddC, 2,3'-dideoxycytosine]",effect on HBV DNA replication (in words),HBV,significant depressions of HBV DNA replication
same,Intracellular HBV DNA MONO. (episomal 3.2 Kb HBV genomes),"HBV; 10 μM, 24 hours following the 9th day of treatment",1.6 pg/μg CELL DNA and 1.8 pg/μg CELL DNA
same,HBV VIRION DNA DAY 0,"HBV; 10 μM, day 0",63 pg/ml CULTURE MEDIUM and 87 pg/ml CULTURE MEDIUM and 82 pg/ml CULTURE MEDIUM
same,HBV VIRION DNA DAY 3,"HBV; 10 μM, day 3",75 pg/ml CULTURE MEDIUM and 56 pg/ml CULTURE MEDIUM and 61 pg/ml CULTURE MEDIUM
same,HBV VIRION DNA DAY 6,"HBV; 10 μM, day 6",26 pg/ml CULTURE MEDIUM
same,HBV VIRION DNA DAY 9,"HBV; 10 μM, day 9, zero = undetectable, cutoff 0.1 pg/ml",2 pg/ml CULTURE MEDIUM and 1 pg/ml CULTURE MEDIUM
same,inhibition at 9 µM,"HBV; Hepatitis B virus, read-out: depression of HBV RI relative to average levels in untreated cells",90%
same,viability,[1]; 1000 μg/ml,12 ± 5%
same,viability,[1]; 3000 μg/ml,40 ± 4%
same,Neutral Red Dye Uptake at Indicated Drug Concentration,cell viability; 10 μg/ml,102 ± 2 % of Control
same,Neutral Red Dye Uptake at Indicated Drug Concentration,cell viability; 30 μg/ml,101 ± 3 % of Control
